Our source for the inhibition values is ChEMBL document CHEMBL1146582, “Phenolic constituents from Dalbergia cochinchinensis” (J Nat Prod, 2003).

The nature of test [1]: Inhibition of testerone 5-alpha-reductase at 100 ug/mL.
Test [2] is described as follows: Inhibition of testerone 5-alpha-reductase at 50 ug/mL.
The nature of test [3]: Inhibition of testerone 5-alpha-reductase at 25 ug/mL.

Turning to `CC1(C)[C@@H](O)CC[C@]2(C)[C@H]3C(=O)C=C4[C@@H]5C[C@@](C)(C(=O)O)CC[C@]5(C)CC[C@@]4(C)[C@]3(C)CC[C@@H]12`, the inhibition in test [1] was found to be 87.1%; in test [2] it was 64.7%; in test [3], 31.7%.
The corresponding values for `C=CC(c1ccccc1)c1cc(O)c(OC)cc1OC` (stereo not drawn) are 51.8%, 18.9% and 8.2%.
With `COC1=CC(=O)c2cc(-c3ccccc3)c3cc(O)c(OC)cc3c2C1=O`, the figures for the inhibition in test [1], in test [2] and in test [3] were 65.6%, 52% and 42.8%, respectively.
With `COc1cc(O)ccc1C(=O)/C=C/c1ccccc1`, the inhibition was 22.8% in test [1], 20.7% in test [2] and 19.5% in test [3].
Consider `COc1cc2oc(Cc3cc(OC)c(OC)cc3OC/C=C/c3ccccc3)c(-c3ccccc3)c2cc1O`, for which the inhibition worked out at 18.1% in test [1], 15.9% in test [2] and 11.5% in test [3].
As to `COC1=CC(=O)C(Cc2oc3cc(OC)c(O)cc3c2-c2ccccc2)=CC1(C/C=C/c1ccccc1)OC` (stereo not drawn), the inhibition in test [1] was determined as 17%; in test [2], 3.8%; in test [3], 0.6%.
